Assay results reported in patent US11179412B2, “Methods of treating conditions involving elevated inflammatory response” (University of Pittsburgh—Of the Commonwealth System of …, priority 2017, dated 2021).
Structures can show the parent of a compound that is named as a salt.

These compounds were tested on STING activation (IFNβ release) in iBMDMs (assay: IFNβ release ELISA after STING ligand (or LPS) stimulation, iBMDMs). Conditions: not given.
Type: cell-based, mouse
From the text: Commercially available enzyme-linked immunosorbent assay (ELISA) kits were used to measure the concentrations of mouse IFNβ (Thermo Fisher Scientific) or human IFNβ (Thermo Fisher Scientific) in culture medium according to the manufacturer's instructions. […]

| Compound | fold increase in IFN-β release |
| --- | --- |
| Cc1cccc(-c2[nH]ncc2-c2ccc3ncccc3n2)n1 [RepSox] | 0.99 fold |

Same assay, conditions: 16 h, 10 µM

| Compound | fold increase in IFN-β release |
| --- | --- |
| CCc1c(C(=O)C(N)=O)c2c(OCC(=O)O)cccc2n1Cc1ccccc1 [Varespladib (LY315920), Varespladib] | 1.18 fold |

Same assay, conditions: iBMDMs; 3′3′-cGAMP 10 μg/ml, 16 hours; compound 10 μM

| Compound | fold increase in IFN-β release |
| --- | --- |
| CC(=O)O[C@H]1C[C@@H]2CC[C@@H]3[C@H](CC[C@@]4(C)[C@H]3C[C@H]([N+]3(C)CCCCC3)[C@@H]4OC(C)=O)[C@@]2(C)C[C@@H]1[N+]1(C)CCCCC1.[Br-].[Br-] [Pancuronium dibromide] | 1.20 fold |
| CNc1nc(Nc2cn(C(C)(C)C#N)nc2C)ncc1C(F)(F)F [GNE-0877] | 1.32 fold |
| CCc1nc(N)nc(N)c1-c1ccc(Cl)cc1 [Pyrimethamine] | 5.22 fold |
| CCC(CC)(NC(=O)C(C)C)C(=O)N[C@@H](CCCN=C(N)N)C(=O)NC1(C(=O)NC(c2ccc(F)cc2)c2ccc(F)cc2)CCCC1 [MM-102] | 2.32 fold |
| Maraviroc | 2.50 fold |
| CC(=O)Nc1nc2c(Oc3cc(-c4ccc(C(F)(F)F)cc4)ncn3)cccc2s1 [AMG-517] | 1.18 fold |
| C=CC(=O)Nc1cccc(Nc2nc(Nc3ccc(NC4CN(CCF)C4)cc3OC)ncc2C(F)(F)F)c1 [CNX-2006] | 1.93 fold |
| CC(C)NCC(O)COc1cccc2ccccc12 (centres unmarked) [Propranolol HCl] | 2.07 fold |
| CCOC(=O)[C@H]1O[C@@H]1C(=O)N[C@@H](CC(C)C)C(=O)NCCC(C)C [Aloxistatin] | 0.31 fold |
| C[C@H](NCc1ccc(OCc2cccc(F)c2)cc1)C(N)=O [Safinamide Mesylate] | 5.18 fold |
| O=C(Nc1ccccc1)c1cc([N+](=O)[O-])ccc1Cl [GW9662] | 2.50 fold |
| COc1ccnc2[nH]cc(C(=O)C(=O)N3CCN(C(=O)c4ccccc4)C[C@H]3C)c12 [BMS-378806] | 1.70 fold |
| COc1cc(N2CCN(C)CC2)ccc1Nc1nccc(-c2cn(C)c3cnccc23)n1 [AZ191] | 2.01 fold |
| CCOC(=O)NCCCC(=O)NCCc1ccccc1 [Santacruzamate A (CAY10683), Santacruzamate A] | 1.18 fold |
| CS(=O)(=O)N1CCN(Cc2cc3nc(-c4cccc5[nH]ncc45)nc(N4CCOCC4)c3s2)CC1 [GDC-0941] | 2.13 fold |
| Cc1cc(NC(=O)Nc2ccc(N(C)C)cc2)c2cc(F)cc(F)c2n1 [SB408124] | 1.90 fold |
| SN-38 | 1.72 fold |
| O=C(NCc1cccc(O)c1)Nc1nc(-c2ccncc2)cs1 [RKI-1447] | 2.41 fold |
| CC(C)NCC(O)COc1ccc(COCCOC(C)C)cc1 (centres unmarked) [Bisoprolol fumarate] | 0.70 fold |
| NC(=O)c1ncn([C@@H]2O[C@H](CO)[C@@H](O)[C@H]2O)c1N [Acadesine] | 1.02 fold |
| CCC(=O)Nc1cccc(Oc2nc(Nc3ccc(N4CCN(C)CC4)cc3OC)ncc2Cl)c1 [WZ4003] | 0.12 fold |

| Compound | fold increase in IFN-β release |
| --- | --- |
| O=C(O)CCc1ccc(NCc2cccc(Oc3ccccc3)c2)cc1 [GW9508] | 0.80 fold |
| Cc1ccccc1C(=O)Nc1ccc(C(=O)N2CCCC(O)c3cc(Cl)ccc32)c(C)c1 (centres unmarked) [Tolvaptan] | 1.20 fold |
| COc1c(O)cc2c(c1O)[C@@H]1O[C@H](CO)[C@@H](O)[C@H](O)[C@H]1OC2=O [Bergenin] | 0.57 fold |
| Cc1[nH]c2ccccc2c1CCNCc1ccc(/C=C/C(=O)NO)cc1 [Panobinostat (LBH589), Panobinostat] | 0.61 fold |
| Cc1ccc(NC(=O)c2ccc(CN3CCN(C)CC3)cc2)cc1Nc1nccc(-c2cccnc2)n1 [Imatinib (STI571), Imatinib] | 1.04 fold |
| CC(=O)OCC(=O)NCCCOc1cccc(CN2CCCCC2)c1 [Roxatidine Acetate HCl] | 3.16 fold |
| CCO[C@@H]1OC(=O)C[C@@H]1NC(=O)[C@@H]1CCCN1C(=O)[C@@H](NC(=O)c1ccc(N)c(Cl)c1)C(C)(C)C [VX-765] | 1.67 fold |
| Cl.Cl.NC1(c2ccc(-c3nc4ccn5c(=O)[nH]nc5c4cc3-c3ccccc3)cc2)CCC1 [MK-2206 2HCl] | 1.02 fold |
| O=C(O)/C(S)=C/c1c[nH]c2ccc(F)cc12 [PD 151746] | 1.92 fold |
| NC(=O)c1ccc(I)c([N+](=O)[O-])c1 [Iniparib (BSI-201), Iniparib] | 0.23 fold |
| NC(=O)c1ccc(-c2nc(-c3ccccn3)c(-c3ccc4c(c3)OCO4)[nH]2)cc1 [SB431542] | 0.78 fold |
| Oc1ccc2ccccc2c1SSc1c(O)ccc2ccccc12 [IPA-3] | 0.35 fold |
| CCn1c(-c2nonc2N)nc2c(C#CC(C)(C)O)ncc(OC[C@H]3CCCNC3)c21 [GSK690693] | 1.12 fold |
| CCC(=O)NCC[C@@H]1CCc2ccc3c(c21)CCO3 [Ramelteon] | 0.56 fold |
| O=C(Nc1ccccc1-c1cn2c(CN3CCNCC3)csc2n1)c1cnc2ccccc2n1 [SRT1720] | 0.76 fold |
| Oc1ncnc2[nH]ncc12 [Allopurinol] | 3.15 fold |
| HO-3867 | 0.52 fold |
| Cc1ccc(NC(=O)C2(c3ccc4c(c3)OC(F)(F)O4)CC2)nc1-c1cccc(C(=O)O)c1 [VX-809 (Lumacaftor), Lumacaftor] | 1.07 fold |
| CCOC(=O)C1=C(N)Oc2ccc(Br)cc2C1C(C#N)C(=O)OCC (centres unmarked) [HA14-1] | 0.45 fold |
| O=S(=O)(c1ccccc1)N(CC(F)(F)F)c1ccc(C(O)(C(F)(F)F)C(F)(F)F)cc1 [T0901317] | 1.49 fold |
| CCCc1ccc(OCC(=O)N(Cc2nc(-c3cccnc3)no2)C(C)C)cc1 [PI-1840] | 0.60 fold |

| Compound | fold increase in IFN-β release |
| --- | --- |
| COc1ccc(-c2nc3ccc(C4=NNC(=O)CC4C)cc3[nH]2)cc1 (centres unmarked) [Pimobendan] | 1.79 fold |
| C[C@]12CC[C@@H]3c4ccc(O)cc4C[C@@H](CCCCCCCCC[S+]([O-])CCCC(F)(F)C(F)(F)F)[C@H]3[C@@H]1CC[C@@H]2O (some centres unmarked) [Fulvestrant] | 0.52 fold |
| CCc1c2c(nc3ccc(OC(=O)N4CCC(N5CCCCC5)CC4)cc13)-c1cc3c(c(=O)n1C2)COC(=O)[C@]3(O)CC [Irinotecan] | 1.13 fold |
| CC(C)CCN1c2nc(Nc3cc(F)c(O)c(F)c3)ncc2N(C)C(=O)C1C (centres unmarked) [BI-D1870] | 0.79 fold |
| O=C(O)c1cccc(-c2noc(-c3ccccc3F)n2)c1 [Ataluren (PTC124), Ataluren] | 1.74 fold |
| O=c1cc(-c2ccc(O)cc2)oc2cc(O)cc(O)c12 [Apigenin] | 0.44 fold |
| CC(C)[C@H](O)C(=O)N[C@@H](C)C(=O)N[C@@H]1C(=O)N(C)CCc2ccccc21 [Semagacestat (LY450139), Semagacestat] | 1.04 fold |
| (−)-MK 801 Maleate | 4.76 fold |
| Cc1cc(-c2ccc(CC(=O)Nc3ccc(-c4cccnc4)cc3)cc2)ccn1 [Wnt-059 (C59)] | 0.13 fold |
| CC12CC3CC(C)(C1)CC(N)(C3)C2 [Memantine HCl] | 2.60 fold |
| CN1C(=O)C(Cc2c[nH]c3ccccc23)NC1=S (centres unmarked) [Necrostatin-1] | 1.60 fold |
| CN(C)C(=O)c1ccc(S(=O)(=O)c2ccc(NC(=O)[C@@](C)(O)C(F)(F)F)c(Cl)c2)cc1 [AZD7545] | 3.45 fold |
| CNC(=O)[C@H](Cc1ccccc1)NC(=O)[C@H](CC(C)C)[C@H](CSc1cccs1)C(=O)NO [Batimastat (BB-94), Batimastat] | 1.20 fold |
| CC1C(=O)OC2C(O)C34C5CC(C(C)(C)C)C36C(OC(=O)C6O)OC4(C(=O)O5)C12O (centres unmarked) [Ginkgolide B] | 1.44 fold |
| O=C(Nc1ccccc1Br)N[C@@H]1CCN(c2ccc(C(F)(F)F)cn2)C1 [SB705498] | 0.32 fold |
| N#CC1(c2ccc(NC(=O)c3cccnc3NCc3ccncc3)cc2)CCCC1 [Apatinib] | 0.26 fold |
| CC#CCn1c(N2CCC[C@@H](N)C2)nc2c1c(=O)n(Cc1nc(C)c3ccccc3n1)c(=O)n2C [Linagliptin] | 2.07 fold |
| CNC(=O)c1cc(Oc2ccc(NC(=O)Nc3ccc(Cl)c(C(F)(F)F)c3)cc2)ccn1 [Sorafenib] | 0.91 fold |
| O=C(NCCN1CCOCC1)c1ccc(Cl)cc1 [Moclobemide (Ro 111163), Moclobemide] | 1.88 fold |
| O=C(Nc1cccc(C(F)(F)F)c1)Nc1cc(S(=O)(=O)NC2CC2)ccc1-c1ccsc1 [AGI-6780] | 2.14 fold |

Same assay, conditions: iBMDMs; 3′3′-cGAMP 10 μg/ml, 16 hours; compound 10 μM; HCl Trihydrate

| Compound | fold increase in IFN-β release |
| --- | --- |
| CCc1c2c(nc3ccc(OC(=O)N4CCC(N5CCCCC5)CC4)cc13)-c1cc3c(c(=O)n1C2)COC(=O)[C@]3(O)CC [Irinotecan HCl Trihydrate] | 0.51 fold |
